Patent publication US12180187B2, “1-phenyl-5-azinylpyrazolyl-3-oxyalkyl acids and their use for controlling unwanted plant growth” (BAYER AKTIENGESELLSCHAFT, priority 2019, dated 2024)

Key:
DIGSA = experiment: Post-emergence action against DIGSA, 1.28 kg/ha; assay type: in vivo, Digitaria sanguinalis; details: dosage 1280 g/ha, visual rating about 3 weeks after treatment vs untreated controls
How it was run: (§1)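 Greenhouse pot test, sandy loam; weeds sprayed post-emergence at one-leaf stage (2–3 weeks after sowing) with WP or EC formulation plus 0.5% additive, 600 l/ha water. Visual rating after about 3 weeks versus untreated controls, 100% = plants dead, 0% = like control.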

AVEFA = experiment: Post-emergence action at 320 g/ha against AVEFA; assay type: in vivo; details: visual rating about 3 weeks after treatment vs untreated controls
How it was run: (§2)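 Weeds were sown in sandy loam, grown in a greenhouse and sprayed at the one-leaf stage, 2 to 3 weeks after sowing, with WP or EC formulations as aqueous suspension or emulsion plus 0.5% additive at 600 l/ha water. Activity was rated visually after about 3 weeks against untreated controls (100% = plants dead, 0% = like control).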

VIOTR [1] = experiment: Pre-emergence action at 320 g/ha against VIOTR; assay type: in vivo, Viola tricolor; details: dosage 320 g/ha
How it was run: (§3)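 Weed seeds sown in pots and covered with soil; compounds formulated as WP or EC were sprayed onto the soil surface as aqueous suspension or emulsion with 0.5% additive at 600 l/ha water. Pots kept in greenhouse; activity scored visually after about 3 weeks versus untreated controls (100% = plants dead, 0% = like control).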

ALOMY = experiment: Pre-emergence action against ALOMY, 1280 g/ha; assay type: in vivo, Alopecurus myosuroides; details: visual scoring after about 3 weeks vs untreated controls, 100% = plants have died, 0% = like control plants
How it was run: (§4)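 Mono- and dicot weed seeds sown in sandy loam were treated on the covering soil surface with WP or EC formulations plus 0.5% additive at 600 L water/ha. Pots stayed in a greenhouse; damage was scored visually after ~3 weeks as percent versus untreated controls (100% = dead).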

VERPE = experiment: Pre-emergence action at 320 g/ha against VERPE; assay type: in vivo, Veronica persica; details: visual scoring after about 3 weeks vs untreated controls
How it was run: as §3

LOLRI = experiment: Pre-emergence action against LOLRI, 1280 g/ha; assay type: in vivo, Lolium rigidum; details: visual scoring after about 3 weeks vs untreated controls, 100% = plants have died, 0% = like control plants
How it was run: as §4

VIOTR [2] = experiment: Post-emergence action at 320 g/ha against VIOTR; assay type: in vivo, Viola tricolor; details: visual rating about 3 weeks after treatment vs untreated controls
How it was run: as §2

ECHCG = experiment: Post-emergence action at 320 g/ha against ECHCG; assay type: in vivo, Echinochloa crus-galli; details: dosage 320 g/ha, visual rating about 3 weeks after treatment vs untreated controls (100% = plants died)
How it was run: as §2

ABUTH = experiment: Pre-emergence action against ABUTH, 1280 g/ha; assay type: in vivo, Abutilon theophrasti; details: scored visually after about 3 weeks vs untreated controls (100% = plants have died)
How it was run: as §4

ECHGC = experiment: Pre-emergence action at 320 g/ha against ECHGC; assay type: in vivo, Echinochloa crus-galli; details: visual scoring after about 3 weeks vs untreated controls
How it was run: as §3

KCHSC [3] = experiment: Pre-emergence action against KCHSC, 1280 g/ha; assay type: in vivo, Bassia scoparia; details: scored visually after about 3 weeks vs untreated controls (100% = plants have died)
How it was run: as §4

KCHSC [4] = experiment: Post-emergence action against KCHSC, 1.28 kg/ha; assay type: in vivo, Bassia scoparia; details: dosage 1280 g/ha, visual rating about 3 weeks after treatment vs untreated controls (100% = plants died)
How it was run: as §1

PHBPU = experiment: Pre-emergence action at 320 g/ha against PHBPU; assay type: in vivo; details: visual scoring after about 3 weeks vs untreated controls
How it was run: as §3

| SMILES | Post-emergence action against DIGSA (DIGSA) [%] | Post-emergence action against AVEFA in % (AVEFA) [%] | Pre-emergence action against VIOTR in % (VIOTR [1]) [%] | Pre-emergence action against ALOMY (ALOMY) [%] | Pre-emergence action against VERPE in % (VERPE) [%] | Pre-emergence action against LOLRI (LOLRI) [%] | Post-emergence action against VIOTR in % (VIOTR [2]) [%] | Post-emergence action at 320 g/ha against ECHCG in % (ECHCG) [%] | Pre-emergence action against ABUTH (ABUTH) [%] | Pre-emergence action against ECHGC in % (ECHGC) [%] | Pre-emergence action against KCHSC (KCHSC [3]) [%] | Post-emergence action against KCHSC (KCHSC [4]) [%] | Pre-emergence action against PHBPU in % (PHBPU) [%] |
| --- | --- | --- | --- | --- | --- | --- | --- | --- | --- | --- | --- | --- | --- |
| COC(=O)CNC(=O)COc1nn(-c2ccccc2F)c(-c2ccc(F)nc2)c1C(F)(F)F [Example X-007] | 100 | 80 | 100 | 100 | 100 | 100 | 80 | 80 | 90 |  |  |  |  |
| COC(=O)C(C)Oc1nn(-c2ccccc2)c(-c2ccc(F)nc2)c1Br (stereo not drawn) [VII-014] |  | 90 | 100 | 90 | 100 | 100 | 90 | 80 |  | 80 | 100 |  |  |
| CCOC(=O)COc1nn(-c2ccccc2F)c(-c2ccc(F)nc2)c1I [VII-036] | 100 | 80 | 100 | 100 | 100 | 100 | 80 | 80 | 90 | 90 |  |  |  |
| O=C(O)COc1nn(-c2ccccc2F)c(-c2ccc(F)nc2)c1I [VII-037] | 90 | 80 | 100 | 100 | 100 | 100 | 80 | 80 |  | 80 |  |  |  |
| COCCOC(=O)COc1nn(-c2ccccc2F)c(-c2ccc(F)nc2)c1Br [VII-052] | 100 | 90 | 100 | 100 | 90 | 100 | 80 |  | 100 | 90 |  |  |  |
| CCOC(=O)C(C)Oc1nn(-c2ccccc2F)c(-c2ccc(F)nc2)c1I (stereo not drawn) [VII-057] | 100 |  | 100 | 100 |  | 100 | 80 |  | 90 |  | 100 | 90 |  |
| COC(=O)[C@@H](C)Oc1nn(-c2cc(F)ccc2F)c(-c2ccc(F)nc2)c1Br [VII-062] | 100 | 90 | 100 | 100 | 100 | 100 | 80 | 80 | 90 |  | 100 | 90 |  |
| CCOC(=O)C(C)Oc1nn(-c2ccccc2F)c(-c2ccc(F)nc2)c1C(F)(F)F (stereo not drawn) [VII-066] | 100 |  | 100 | 100 | 100 | 100 | 80 | 80 |  | 90 |  | 90 |  |
| COC(=O)COc1nn(-c2cc(F)ccc2F)c(-c2ccc(F)nc2)c1Br [VII-089] | 100 | 80 | 100 | 100 | 100 | 100 |  |  |  | 80 |  |  | 80 |
| O=C(COc1nn(-c2ccccc2F)c(-c2ccc(F)nc2)c1Br)OCC1CCOC1 (stereo not drawn) [VII-091] | 100 | 80 | 100 | 100 | 100 | 100 |  |  | 90 |  |  |  |  |
| O=C(COc1nn(-c2ccccc2F)c(-c2ccc(F)nc2)c1Br)OCC1OCCO1 [VII-103] | 100 | 80 | 100 | 100 | 100 | 100 |  | 80 | 90 | 80 |  |  |  |
| COC(=O)[C@H](C)Oc1nn(-c2cc(F)ccc2F)c(-c2ccc(F)nc2)c1Br [VII-107] | 100 |  | 100 | 90 | 80 | 90 | 80 | 80 |  |  |  |  |  |
| CCOC(=O)COc1nn(-c2ccccc2F)c(-c2ccc(F)nc2)c1C [VII-117] | 100 | 90 | 100 | 100 | 90 | 100 | 80 |  | 90 | 90 |  |  |  |
| COC(=O)[C@@H](C)Oc1nn(-c2cc(F)ccc2F)c(-c2cncc(F)c2)c1C#N [VII-147] | 100 | 80 | 100 | 100 | 100 | 100 |  | 80 | 90 | 100 | 100 | 90 |  |
| COC(=O)[C@@H](C)Oc1nn(-c2ccccc2F)c(-c2ccnc(F)c2)c1Br [VIII-006] | 90 | 80 | 100 | 100 |  | 100 |  | 90 | 90 |  | 100 | 90 | 90 |
